# Measurements taken from patent US20140228407A1, “TETRA-PYRIDINE COMPOUNDS AND COMPOSITION FOR PROTECTING CELLS, TISSUES AND ORGANS AGAINST ISCHEMIA-REPERFUSION INJURY” (YISSUM RESEARCH DEVELOPMENT COMPANY OF THE HEBREW …, priority 2011, published 2014).
# Marks after values point to notes of the source that are not given here.
# How the values were obtained:
# [1] = tested on: neonate rat cardiomyocyte cells; assay: Hypoxia/ischemia in neonatal rat cardiomyocyte cultures, LDH release; assay type: cell-based; settings: 30, 100 and 300 nm compound vs 1 μM TPEN; 150 min ischemia then reoxygenation
# Description: Rat hearts (1-2 days old) were sterilely removed and bathed three times in Ca^2+- and Mg^2+-free PBS to remove excess blood cells. The hearts were minced to small fragments and then agitated in a proteolytic enzyme-RDB solution prepared from a fig tree extract as described previously (Brik et al., 1990; Shneyvays et al., 2001). The RDB was diluted 1:200 in PBS at 25° C. for a few cycles of 10 min each. The supernatant suspension containing dissociated cells, to which medium containing 10% horse serum was added, was centrifuged at 500 g for 5 min. After centrifugation, the supernatant phase was discarded, and cells were resuspended in Dulbecco's modified Eagle medium supplemented with 10% heat-inactivated horse serum and 0.5% chick embryo extract. Cell suspensions were diluted to 1×10^6 cells/ml, and 300 μl was placed in 24 well plates (4 plates) collagen/gelatin-coated plastic culture dishes. Cultures were incubated in a humidified atmosphere of 5% CO2 and 95% air at 37° C. […] The growth medium was replaced every 3 days. The experiments were performed in vitro on these cardiomyocyte cultures after 3 to 5 days. […]
# LDH activity was determined using LDH-L kit (Thermo Trace, Melbourne, Australia) within the cardiac cell medium (PBS). […] LDH enzymatic activity was measured in a spectrophotometer at a wavelength of 340 nm at 30° C. […]
# PC12 cells = assay: PC12 ischemic model (oxygen and glucose deprivation), cell death by LDH measurement; assay type: cell-based; settings: for protection percentile: protection from cell death, FIG. 6B: identical for both compounds
# Description: PC12 cells were grown in 25 cm^2 flasks in Dulbecco's modified Eagles Medium (DMEM), supplemented with 7% fetal bovine serum (FBS), 7% horse serum, […] penicillin and 100 μg/ml streptomycin. Cells were grown in humidified incubator 5% CO2, 95% air at 37° C. The medium was replaced every 2 days, and upon 70% confluence, the cells were counted and seeded for the ischemia experiments.
# Approximately 1×10^6 PC12 cells/well were cultured and exposed to ischemia (oxygen and glucose deprivation=OGD) for 4.5 hr. Prior to the exposure, the growth medium was replaced with glucose-free DMEM (1 ml/well). Ischemia was performed in a closed chamber by replacement of air with 95% nitrogen/5% CO2.
# Ischemic stress injury was characterized by lactate dehydrogenase (LDH) released from cells. After 4.5 hr of ischemia, a 50 μl sample of supernatant was taken from each well for LDH measurement. At the end of the ischemic insult (after 4.5 hr), glucose (at final concentration of 4.5 g/L by adding 10 μl from stock solution of 450 mg/ml per well (1 ml)) was added to the plates which underwent ischemia. The plates were then transferred to a humidified incubator and exposed to 95% air/5% CO2 at 37° C. for additional 18 hr of reoxygenation. DMEM supernatant samples (25 μl/well) were collected from each well for LDH measurements. The samples were centrifuged at 3500 rpm for 5 min, and 5 μl aliquots of supernatant was taken for LDH measurement.
# For every experiment, a duplicate plate was prepared as a control study under normoxia. Cells were kept in a humidified incubator (5% CO2 and 95% air at 37° C.) in cell culture complete medium at a volume of 1 ml for 18 hr, and the same compounds were added with the same concentrations. Supernatant was collected for LDH measurement as indicated in the LDH activity measurement section below. Afterwards (at the end of the reoxygenation phase), the plates were frozen (at −70° C. for 30 min) and thawed once. 25 μl/well sample was collected and the samples were centrifuged at 3500 rpm for 5 min and then taken for LDH measurement (total).
# LDH activity was determined using LDH-L kit (Pointe Scientific Inc., Michigan, USA) in the PC12 cell medium. Medium samples (5 μl) were collected at the end of the ischemic insult (after 4.5 hr) and after the reoxygenation period. In parallel, samples from the plates exposed to normoxia were collected. LDH enzymatic activity was measured in a spectrophotometer at a wavelength of 340 nm at 37° C. Data analysis was performed as follows: [OD (cycle 3)−OD (cycle 1)experiment]−[OD(3)−OD(1) control])/[OD(3)−OD(1) total]×100, and presented as percentage of total cell death.
# One day before the experiment, 12-well plates were coated with 200 μg/ml type I rat tail collagen (BD Biosciences, Bedford, Mass.) and were further sterilized under UV. 1×10^6 PC12 undifferentiated cells/well were seeded on the plates and allowed to adhere overnight under regular conditions (DMEM medium high glucose 4.5 mg/ml, 5% CO2 and 95% air at 37° C.). Each experiment included 4 plates, two for normoxia and two for ischemia which underwent the same following treatment for all 4 plates.
# A half hour before the onset of the ischemic insult, the antioxidant Tempol (4-hydroxy-2,2,6,6-tetramethylpiperidine-1-oxyl) (Sigma, St. Louis, Mo.) at a concentration of 0.5 mM (10 μl/well taken from a 8.6 mg/ml stock solution) or TPEN at a concentration of 3 μM and 10 μM were added to the plates. Before the experiments, the medium was replaced with DMEM glucose free medium at 1 ml volume/well. TPEN or 10 μl Tempol were again added to the appropriate wells and was maintained throughout all experiments.
# Thereafter, the plates were introduced into a device inducing ischemia atmosphere with 95% nitrogen and 5% CO2 for 4.5 hr. Oxygen level was monitored online by a digital oxygen monitor showing up to 1%. At the end of OGD, 25 μl from each well was collected into 0.5 ml tubes for the LDH assay. […]
# [2] = tested on: model of ischemia/reperfusion in the CD rat; assay: Rat model of ischemia/reperfusion, infarct analysis (Phase B); assay type: in vivo; settings: positive control 5000 IU/kg bolus intravenous injection
# Description: This study was conducted to evaluate the effects of the Compound #6 on cardiac function, infarct size, and Troponin I levels in a model of ischemia/reperfusion in the CD® (CR1CD® (SD)) rat. Phase A was conducted for toxicity evaluation purposes. In Phase B (the efficacy phase), two treatment groups of eight male rats were administered Compound #6 at dose levels of 0.2 and 2 mg/kg via intravenous infusion following myocardial infarction. The 2 mg/kg dose of Compound #6 was administered intravenously via a slow infusion starting 3 to 14 minutes prior to reperfusion and continuing for 20 minutes to 20 minutes and 32 seconds, which was approximately 6 to 17 minutes after reperfusion (depending on the infusion start time). The 0.2 mg/kg dose of Compound #6 was administered intravenously via a slow infusion starting 10 minutes prior to reperfusion and continuing for 30 minutes to 30 minutes and 30 seconds, which was approximately 20 minutes after reperfusion.
# The animals were placed on mechanical ventilation and […]. Once anesthetized, the animal was placed in a right lateral recumbency, an arterial catheter or polyethylene tube was placed in the carotid artery for monitoring blood pressure and a thoracotomy was performed. The left coronary artery (LCA) was identified. A ligature was placed around the LCA and the vessel was ligated. The LCA was maintained occluded for 29 to 43 minutes. Occlusion of the vessel was verified via blanching of the heart and via ST interval changes. At the end of the occlusion period, the knot was loosened leaving the ligature in place, and the vessel was allowed to reperfuse for 3 hours 27 minutes to 4 hours 51 minutes. Following infarct, a chest tube was placed, the deep and superficial muscle layers were sutured at the surgical incision, and the skin was closed with staples. The chest tube was removed after spontaneous respiration was established. In Phase A, the animals were recovered from anesthesia and evaluated for 4 days. In Phase B, animals were maintained under anesthesia for 3 hours 27 minutes to 4 hours 51 minutes prior to being submitted to necropsy.
# (§1) In Phase B, Compound #6 was administered once on Day 0 via intravenous infusion at dose levels of 0.2 and 2 mg/kg. The doses were administered at a dose volume of 1 mL/kg (0.05 [2 mg/kg] or 0.033 [0.2 mg/kg] mL/kg/minute). Two control groups received the vehicle (saline) or the vehicle for Compound #6 (10% (w/v) 2-hydroxypropyl-beta-cyclodextrin and 100 mM sodium chloride in deionized water) in the same manner as the 2 mg/kg treated group. The vehicles and 2 mg/kg Compound #6 were administered intravenously via a slow infusion starting 3 to 14 minutes prior to reperfusion and continuing for 20 minutes to 20 minutes and 32 seconds, which was approximately 6 to 17 minutes after reperfusion (depending on the infusion start time). The 0.2 mg/kg Compound #6 was administered intravenously via a slow infusion starting 10 minutes prior to reperfusion and continuing for 30 minutes to 30 minutes and 30 seconds, which was approximately 20 minutes after reperfusion. The positive control article, Erythropoietin, was administered at 5000 IU/kg via a bolus intravenous injection. The positive control article dose was administered at a dose volume of 2.5 mL/kg. The positive control was administered via a 3 to 60 second injection at 5 minutes prior to reperfusion.
# After LAD reperfusion (4 hours), the animals were euthanized by an intraperitoneal injection of sodium pentobarbital followed by exsanguination via severing the abdominal vena cava. The heart was flushed with heparinized Lactated Ringers Solution (LRS) until clear of blood and the LAD was tied off using the same ligature used to occlude the vessel and Evan Blue dye was injected. The heart was weighed and breadloafed (4-5 sections per animal). […]
# [3] = tested on: model of ischemia/reperfusion in the CD rat; assay: Rat model of ischemia/reperfusion, cardiovascular monitoring (blood pressure, heart rate; Phase B); assay type: in vivo; settings: positive control 5000 IU/kg bolus; within 5-10 minutes of reperfusion
# Description: The animals in Phase B were monitored for selected cardiovascular endpoints from at least 15 minutes prior to acute myocardial infarction until at approximately 1 hour post reperfusion. Blood samples for the evaluation of Troponin I were collected from all surviving Phase B animals prior to coronary artery occlusion and at termination. At study termination, the Phase B animals were submitted to necropsy for limited necropsy examinations and infarct analysis.
# as §1
# In Phase B, animals were anesthetized for monitoring of selected cardiovascular parameters. For experimentation, the blood pressure catheter implanted in the carotid artery was attached to an external transducer and data acquisition was started. Blood pressure (systolic, diastolic, and mean arterial) and heart rate (derived from blood pressure) were monitored from at least 15 minutes prior to acute myocardial infarction (AMI) until at least 1 hour after reperfusion. Individual animal cardiovascular data tables are not reported but are maintained in the study file.
molecule,measurement,setting,value
c1c[nH]c(CN(CCN(Cc2ncc[nH]2)Cc2ncc[nH]2)Cc2ncc[nH]2)n1 [Compound #4],"protective effect against hypoxic insult (LDH release) compared with TPEN, FIG. 1A",[1],only slightly more effective than TPEN
"c1ccc(CN(CCN(Cc2ccccn2)Cc2ccccn2)Cc2ccccn2)nc1 [TPEN, N,N,N′,N′-tetrakis-(2-pyridylmethyl)-ethylenediamine, reference compound]","reducing death of PC12 cells subjected to ischemia (LDH), FIG. 2","PC12 cells; 10 μM, 4.5 hours ischemia",effective
same,"reducing death of PC12 cells, comparison vs. Tempol, FIG. 2","PC12 cells; TPEN 10 μM vs Tempol 0.5 mM, 4.5 hours ischemia",significantly effective vs. Tempol
same,"protection percentile: protection from cell death, FIG. 6B",PC12 cells; first of two selected concentrations (not given),7%
same,"protection percentile: protection from cell death, FIG. 6B",PC12 cells; second of two selected concentrations (not given),19%
"EPO: positive control article, erythropoietin [reference compound]","cardiac damage compared to saline control animals, in words",[2],significantly less cardiac damage
same,Infarct/AAR (%) Mean,"[2]; 4 hour reperfusion, rat",22^b %
same,Infarct/LV (%) Mean,[2]; rat,8%
same,mean arterial pressures after reperfusion,[3],increased
